Test results from patent US4175081A, “5-Substituted thiadiazole ureas” (priority 1977, dated 1979).

Key:
Crabgrass (CG) [1] = test: Pre-emergence herbicide test; assay type: in vivo, Digitaria sanquinalis; conditions: Digitaria sanguinalis, pre-emergence, 336 h, two weeks after treatment; for pest or weed control at 8966.8 g/ha: 8 lb/acre
How it was run: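 Crabgrass (Digitaria sanquinalis) was surface seeded in 3' plastic pots of potting soil, covered with screened soil, and watered by sub-irrigation in greenhouse trays. Pots were seeded one day before spraying in a hood with a moving belt and fixed nozzle. Plants stayed in the greenhouse on sub-irrigation, and pre-emergence control was rated visually two weeks after treatment.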

Johnson grass (JG) [2] = test: Pre-emergence herbicide test; assay type: in vivo, Sorgum helepense; conditions: Sorghum halepense, 336 h, two weeks after treatment; for pest or weed control at 8966.8 g/ha: 8 lb/acre
How it was run: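 Visual injury or control rating two weeks post-treatment, after pre-emergence spray of 8 or 4 lbs active per acre (38 gal/acre) onto pots sown the previous day. Greenhouse watering by sub-irrigation only.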

Barnyard grass (BG) [3] = test: Pre-emergence herbicide test; assay type: in vivo; conditions: Echinochloa crus-galli, 336 h, two weeks after treatment
How it was run: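 Greenhouse pre-emergence spray test: pots seeded one day before treatment received compound at rates of 8 or 4 lb/acre (38 gal/acre). Visual injury/control scores for Echinochloa crus-galli taken at two weeks, with watering by sub-irrigation only.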

Amaranth pigweed (PW) [4] = test: Pre-emergence herbicide test; assay type: in vivo, Amaranthus retroflexus; conditions: 336 h, two weeks after treatment; for pest or weed control at 8966.8 g/ha: 8 lb/acre
How it was run: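 Visual injury or control ratings were made at two weeks on pre-emergence pots, sub-irrigated in the greenhouse. Seeds were sown a day before a hood spray delivering 8 lbs/acre (or 4 lbs/acre) of compound in 38 gallons per acre.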

Turnip (TP) [5] = test: Pre-emergence herbicide test; assay type: in vivo, Brassica sp.; conditions: Brassica rapa, pre-emergence, 336 h, two weeks after treatment; for pest or weed control at 8966.8 g/ha: 8 lb/acre
How it was run: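 In this pre-emergence greenhouse test, turnip was seeded on the surface of potting soil in 3' plastic pots, lightly covered with screened soil, and watered from below. One day later the pots were sprayed in a belt-fed spray hood. Watering continued only by sub-irrigation, and percent control was visually scored two weeks after treatment.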

Cotton (CT) [6] = test: Pre-emergence herbicide test; assay type: in vivo, Gossypium hirsutum var. DPL smooth leaf; conditions: Gossypium hirsutum, 336 h, two weeks after treatment; for pest or weed control at 8966.8 g/ha: 8 lb/acre
How it was run: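 Visual injury/control ratings were taken at two weeks post-spray. Pots seeded a day earlier received compound pre-emergence at 8 lbs/acre, or 4 lbs/acre, in a 38 gallon/acre spray volume, and were then held in the greenhouse, watered only from below.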

Corn (CN) [7] = test: Pre-emergence herbicide test; assay type: in vivo; conditions: Zea mays, 336 h, two weeks after treatment; for pest or weed control at 8966.8 g/ha: 8 lb/acre
How it was run: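 Visual injury/control ratings were made 2 weeks post-spray on corn pots seeded (4 seeds, seed-diameter depth) the day before treatment. Application was a belt-hood spray of 38 gal/acre delivering 8 lbs active per acre, with a 4 lbs/acre rate also formulated. Watering was by sub-irrigation throughout.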

Bean (BN) [8] = test: Pre-emergence herbicide test; assay type: in vivo, Phaseolus vulgaris var. Black Valentine; conditions: Phaseolus vulgaris, 336 h, two weeks after treatment; for pest or weed control at 8966.8 g/ha: 8 lb/acre
How it was run: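 Visual injury/control ratings were taken two weeks post-spray on sub-irrigated Phaseolus vulgaris var. Black Valentine. Pots were sown a day before treatment. Pre-emergence spray delivered 8 lbs actual compound per acre (or 4 lbs/acre) at 38 gallons per acre.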

Crabgrass (CG) [9] = test: Post-emergence herbicide test; assay type: in vivo, Digitaria sanquinalis; conditions: Digitaria sanguinalis, post-emergence, 336 h, two weeks after treatment; for pest or weed control at 8966.8 g/ha: 8 lb/acre
How it was run: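 Crabgrass (Digitaria sanquinalis) was surface seeded individually in 3' plastic pots of potting soil, covered with screened soil, and watered by sub-irrigation in greenhouse trays. Planting was staggered so seedlings reached the target stage together. Post-emergence sprays were applied in a hood with a removable belt and fixed nozzle, and control was visually rated two weeks after treatment.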

Johnson grass (JG) [10] = test: Post-emergence herbicide test; assay type: in vivo, Sorgum helepense; conditions: Sorghum halepense, 336 h, two weeks after treatment; for pest or weed control at 8966.8 g/ha: 8 lb/acre
How it was run: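 Visual injury or control scores taken 2 weeks after a post-emergence spray of pot-grown plants. Application was 8 lbs/acre (or 4 lbs/acre) in 38 gal/acre. Plants were held in the greenhouse with sub-irrigation only.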

Barnyard grass (BG) [11] = test: Post-emergence herbicide test; assay type: in vivo; conditions: Echinochloa crus-galli, 336 h, two weeks after treatment
How it was run: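 Greenhouse pot-grown barnyard grass seedlings sprayed post-emergence at 8 lbs active compound per acre (some at 4 lbs/acre) in 38 gallons per acre, then sub-irrigated. Injury or control rated visually two weeks after treatment.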

Amaranth pigweed (PW) [12] = test: Post-emergence herbicide test; assay type: in vivo, Amaranthus retroflexus; conditions: 336 h, two weeks after treatment; for pest or weed control at 8966.8 g/ha: 8 lb/acre
How it was run: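 Visual injury or control ratings were made two weeks after spraying, with greenhouse watering by sub-irrigation only. Treatment was post-emergence, when pigweed seedlings had 1 or 2 true leaves, at 8 lbs active compound per acre (4 lbs/acre formulations also made) in a 38 gallons-per-acre spray volume.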

Turnip (TP) [13] = test: Post-emergence herbicide test; assay type: in vivo, Brassica sp.; conditions: Brassica rapa, post-emergence, 336 h, two weeks after treatment; for pest or weed control at 8966.8 g/ha: 8 lb/acre
How it was run: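 A greenhouse post-emergence herbicide test on turnip. Seeds were sown on the surface of potting soil in 3' plastic pots, lightly covered with screened soil and watered from below. Planting was timed so seedlings had 1 or 2 true leaves above the cotyledons at spraying, done in a hood with a fixed nozzle. Control or injury was scored by eye after two weeks.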

Cotton (CT) [14] = test: Post-emergence herbicide test; assay type: in vivo, Gossypium hirsutum var. DPL smooth leaf; conditions: Gossypium hirsutum, post-emergence, 336 h, two weeks after treatment; for pest or weed control at 8966.8 g/ha: 8 lb/acre
How it was run: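 This greenhouse post-emergence test measured how well spray treatments controlled cotton. Seedlings of Gossypium hirsutum var. DPL smooth leaf, with expanded cotyledons and a first true leaf 1' in length, were sprayed with 50 ml formulations in a belt-fed spray hood. They were then returned to the greenhouse and watered only by sub-irrigation. Injury was scored visually as % control after two weeks.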

Corn (CN) [15] = test: Post-emergence herbicide test; assay type: in vivo; conditions: Zea mays, 336 h, two weeks after treatment; for pest or weed control at 8966.8 g/ha: 8 lb/acre
How it was run: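 Greenhouse seedlings grown in potting soil and sprayed post-emergence at 8 lbs compound/acre (formulations also made for 4 lbs/acre) in 38 gallons/acre spray volume. Watering by sub-irrigation only. Injury or control rated visually two weeks after treatment.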

Bean (BN) [16] = test: Post-emergence herbicide test; assay type: in vivo, Phaseolus vulgaris var. Black Valentine; conditions: Phaseolus vulgaris, post-emergence, 336 h, two weeks after treatment; for pest or weed control at 8966.8 g/ha: 8 lb/acre
How it was run: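 Bean seedlings (Phaseolus vulgaris var. Black Valentine) were grown in potting soil in 3' pots until the primary leaves expanded. They were then sprayed under a hood with a removable belt and fixed nozzle, using 50 ml formulations. Afterward they were returned to the greenhouse and watered only by sub-irrigation. Percent control was judged visually two weeks after treatment.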

CNC(=O)Nc1nnc(SCc2ccc(Cl)cc2)s1 [Example 87]
pest or weed control at 8966.8 g/ha (Crabgrass (CG) [1]): 10% | pest or weed control at 8966.8 g/ha (Johnson grass (JG) [2]): 20% | pest or weed control at 8966.8 g/ha (Barnyard grass (BG) [3]; 8 lb/acre): 20% | pest or weed control at 8966.8 g/ha (Amaranth pigweed (PW) [4]): 70% | pest or weed control at 8966.8 g/ha (Turnip (TP) [5]): 10% | pest or weed control at 8966.8 g/ha (Cotton (CT) [6]): 50% | pest or weed control at 8966.8 g/ha (Corn (CN) [7]): 10% | pest or weed control at 8966.8 g/ha (Bean (BN) [8]): 100% | pest or weed control at 8966.8 g/ha (Crabgrass (CG) [9]): 20% | pest or weed control at 8966.8 g/ha (Johnson grass (JG) [10]): 10% | pest or weed control at 8966.8 g/ha (Barnyard grass (BG) [11]; 8 lb/acre): 20% | pest or weed control at 8966.8 g/ha (Amaranth pigweed (PW) [12]): 40% | pest or weed control at 8966.8 g/ha (Turnip (TP) [13]): 60% | pest or weed control at 8966.8 g/ha (Cotton (CT) [14]): 70% | pest or weed control at 8966.8 g/ha (Corn (CN) [15]): 10% | pest or weed control at 8966.8 g/ha (Bean (BN) [16]): 100%

CCCSc1nnc(N(C)C(=O)NC)s1 [Example 69]
pest or weed control (Crabgrass (CG) [1]; 2 lb/acre): 90% | pest or weed control at 4483.4 g/ha (Crabgrass (CG) [1]; 4 lb/acre): 90% | pest or weed control at 8966.8 g/ha (Crabgrass (CG) [1]): 100% | pest or weed control at 2241.7 g/ha (Johnson grass (JG) [2]; 2 lb/acre): 20% | pest or weed control at 4483.4 g/ha (Johnson grass (JG) [2]; 4 lb/acre): 40% | pest or weed control at 8966.8 g/ha (Johnson grass (JG) [2]): 70% | pest or weed control at 2241.7 g/ha (Barnyard grass (BG) [3]; 2 lb/acre): 40% | pest or weed control at 4483.4 g/ha (Barnyard grass (BG) [3]; 4 lb/acre): 60% | pest or weed control at 4483.4 g/ha (Amaranth pigweed (PW) [4]; 4 lb/acre): 100% | pest or weed control at 8966.8 g/ha (Amaranth pigweed (PW) [4]): 100% | pest or weed control at 2241.7 g/ha (Turnip (TP) [5]; 2 lb/acre): 90% | pest or weed control at 4483.4 g/ha (Turnip (TP) [5]; 4 lb/acre): 50% | pest or weed control at 8966.8 g/ha (Turnip (TP) [5]): 100% | pest or weed control at 2241.7 g/ha (Cotton (CT) [6]; 2 lb/acre): 50% | pest or weed control at 4483.4 g/ha (Cotton (CT) [6]; 4 lb/acre): 30% | pest or weed control at 8966.8 g/ha (Cotton (CT) [6]): 90% | pest or weed control at 2241.7 g/ha (Corn (CN) [7]; 2 lb/acre): 30% | pest or weed control at 4483.4 g/ha (Corn (CN) [7]; 4 lb/acre): 0% | pest or weed control at 8966.8 g/ha (Corn (CN) [7]): 50% | pest or weed control at 2241.7 g/ha (Bean (BN) [8]; 2 lb/acre): 0% | pest or weed control at 4483.4 g/ha (Bean (BN) [8]; 4 lb/acre): 0% | pest or weed control at 8966.8 g/ha (Bean (BN) [8]): 100% | pest or weed control (Crabgrass (CG) [9]; 2 lb/acre): 100% | pest or weed control at 4483.4 g/ha (Crabgrass (CG) [9]; 4 lb/acre): 90% | pest or weed control at 8966.8 g/ha (Crabgrass (CG) [9]): 100% | pest or weed control (Johnson grass (JG) [10]; 2 lb/acre): 70% | pest or weed control at 4483.4 g/ha (Johnson grass (JG) [10]; 4 lb/acre): 80% | pest or weed control at 8966.8 g/ha (Johnson grass (JG) [10]): 100% | pest or weed control at 2241.7 g/ha (Barnyard grass (BG) [11]; 2 lb/acre): 90% | pest or weed control at 4483.4 g/ha (Barnyard grass (BG) [11]; 4 lb/acre): 80% | pest or weed control at 4483.4 g/ha (Amaranth pigweed (PW) [12]; 4 lb/acre): 100% | pest or weed control at 8966.8 g/ha (Amaranth pigweed (PW) [12]): 100% | pest or weed control at 2241.7 g/ha (Turnip (TP) [13]; 2 lb/acre): 100% | pest or weed control at 4483.4 g/ha (Turnip (TP) [13]; 4 lb/acre): 100% | pest or weed control at 8966.8 g/ha (Turnip (TP) [13]): 100% | pest or weed control at 2241.7 g/ha (Cotton (CT) [14]; 2 lb/acre): 100% | pest or weed control at 4483.4 g/ha (Cotton (CT) [14]; 4 lb/acre): 100% | pest or weed control at 8966.8 g/ha (Cotton (CT) [14]): 100% | pest or weed control (Corn (CN) [15]; 2 lb/acre): 80% | pest or weed control at 4483.4 g/ha (Corn (CN) [15]; 4 lb/acre): 50% | pest or weed control at 8966.8 g/ha (Corn (CN) [15]): 100% | pest or weed control at 2241.7 g/ha (Bean (BN) [16]; 2 lb/acre): 100% | pest or weed control at 4483.4 g/ha (Bean (BN) [16]; 4 lb/acre): 100% | pest or weed control at 8966.8 g/ha (Bean (BN) [16]): 100%
